Measured values from article PMC10486429, “Investigations Using Albumin Binders to Modify the Tissue Distribution Profile of Radiopharmaceuticals Exemplified with Folate Radioconjugates” (Cancers, 2023).

Experiment: n-octanol/PBS distribution coefficient (shake-flask) of 177Lu-DOTA-ALBs
Type: physicochemical
Details: n-octanol/PBS pH 7.4
Method: The radiolabeling of DOTA-ALBs was carried out under standard labeling conditions at pH 4.5. The ligands (10−100 μM) were mixed with lutetium-177 (no-carrier added [^177Lu]LuCl3; in 0.04 M HCl; ITM GmbH Medical Isotopes, Munich, Germany) to reach molar activities of 25–50 MBq/nmol (Supplementary Materials Section S2). An analytical HPLC system equipped with a C18 column and a radioactivity detector was used for quality control of the radiolabeled DOTA-ALBs (Supplementary Materials Section S2). The ^177Lu-DOTA-ALBs were used for preclinical investigations without separation of the labeled from the unlabeled fraction. The radiolytic stability of the ^177Lu-DOTA-ALBs (50 MBq/nmol) diluted in phosphate-buffered saline (PBS; 100 MBq/500 μL) was assessed in vitro in the absence and presence of L-ascorbic acid (Supplementary Materials Section S3). The n-octanol/PBS distribution coefficients (logD values) were determined using a shake-flask method according to an established protocol (Supplementary Materials Section S4). The logD values were analyzed using a one-way ANOVA with Tukey’s multiple comparisons post-test using GraphPad Prism software (version 8). […]
Purpose: The n-octanol/PBS distribution coefficients (logD values) were determined for all 177Lu-DOTA-ALBs in order to assess their hydrophilic/hydrophobic properties.
Methods: The n-octanol/PBS distribution coefficients (logD values) of the 177Lu-DOTA-ALBs were determined as previously described. […]
The vials were vortexed vigorously for 1 min followed by centrifugation for 6 min at 560 rcf for phase separation. An aliquot was taken from each phase and measured in a γ-counter (Perkin Elmer, Wallac Wizard 1480, Waltham, MA, USA). The distribution coeffi-cients were calculated as the logarithm of the ratio of counts per minute (cpm) measured in the n-octanol phase relative to the cpm measured in the PBS phase. […]
Methods: Relative binding affinities of 177Lu-DOTA-ALBs to mouse (MSA) and hu-man (HSA) serum albumin in the respective blood plasma were determined using an ul-trafiltration assay according to a previously described procedure. […]

Row | SMILES | logD value
1 | O=C(O)CN1CCN(CC(=O)O)CCN(CC(=O)NCCC(=O)N[C@@H](CCCCNC(=O)c2ccc(CNC(=O)CCCCc3ccc(I)cc3)cc2)C(=O)O)CCN(CC(=O)O)CC1.[177Lu] [[^177Lu]Lu-DOTA-ALB-25] | −2.39 ± 0.04
2 | O=C(O)CN1CCN(CC(=O)O)CCN(CC(=O)NCCC(=O)N[C@@H](CCCCNC(=O)c2ccc(CNC(=O)CCCc3ccc(I)cc3)cc2)C(=O)O)CCN(CC(=O)O)CC1.[177Lu] [[^177Lu]Lu-DOTA-ALB-3] | −2.64 ± 0.04
3 | O=C(O)CN1CCN(CC(=O)O)CCN(CC(=O)NCCC(=O)N[C@@H](CCCCNC(=O)CCCCc2ccc(I)cc2)C(=O)O)CCN(CC(=O)O)CC1.[177Lu] [[^177Lu]Lu-DOTA-ALB-24] | −2.68 ± 0.06
